Common to all, as to assay: NCI tumour cell line growth inhibition, 48 h
The test system of test [1] is DMS 114 small cell lung.
In test [2] the test system is KM20L2 colon.
The subject of test [3] is RXF-631 renal.
In test [4] the test system is LXFL 529 NSCLC.
Test [5] concerns HOP-18 NSCLC.
Test [6] relates to 786-0 renal.
The test system of test [7] is SN12K1 renal.
The test system of test [8] is P388 leukemia.
Test [9] deals with P388/ADR leukemia.

Experimental findings from PubChem BioAssay (NCI) are described below.

Several values for one entry are separate records, joined by “and”; a condition that tells them apart may be missing. Identical values can stand only once.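 A five-concentration, 48-hour dose response in 96-well plates underlies each endpoint, interpolated linearly between surrounding concentrations. At the TGI there is no net growth.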

On to `C=CCN1C(=O)NC(=O)/C(=C/c2c3ccccc3cc3ccccc23)C1=O`, for which the TGI in test [1] was found to be 45.2 µM.
Turning to `C/C=C(/CCC1NCCc2c1[nH]c1ccccc21)[Si](C)(C)C` (configuration not stated), the TGI in test [2] was > 100 µM and 11.8 µM; in [3] it was > 100 µM and 22.9 µM; in test [4] it was 3.25 µM; in test [5] it was 24.2 µM.
`NC(Cc1cc(I)c(Oc2ccc(O)c(I)c2)c(I)c1)C(=O)O` (configuration not stated): the TGI in test [6] was above 100 µM.
As for `O=S1(=O)C(=C(c2ccccc2)c2ccccc2)S(=O)(=O)c2ccccc21`, the TGI in test [2] was above 100 µM; in test [7], 65.1 µM; in test [8] it was above 31.6 µM; in test [1] it was above 100 µM; in test [9], above 100 µM; in test [5] it was above 100 µM.
